Test results: ChEMBL document CHEMBL1153018, “Synthesis of pochoxime prodrugs as potent HSP90 inhibitors” (Bioorg Med Chem Lett, 2009)
Activity calls are given as the source filed them. The calls are words filed in the database; no cut-off is given here.

Experiments:
[1] = Drug level in tumor of human BT474 cells xenografted in ICR-SCID mouse at 200 mg/kg, ip administered after 3 weeks tumor implantation measured after 24 hrs; assay type: ADME, organism-based, Neoplasm, BT-474; parameters: dose 200 mg/kg, route intraperitoneal; settings: tumor (human BT474 xenograft), read-out: Drug uptake
Mus musculus [2] = assay: Hepatotoxicity in ICR-SCID mouse liver assessed as alkaline phosphatase level at 100 mg/kg administered 3 times per week for 4 weeks measured after 24 hrs of last dose relative to untreated control; assay type: toxicity, organism-based; parameters: dose 100 mg/kg; settings: in vivo
[3] = Drug level in tumor of human BT474 cells xenografted in ICR-SCID mouse at 100 mg/kg, ip administered after 3 weeks tumor implantation measured after 12 hrs; assay type: ADME, organism-based, Neoplasm, BT-474; parameters: dose 100 mg/kg, route intraperitoneal; settings: tumor (human BT474 xenograft), read-out: Drug uptake
Mus musculus [4] = assay: Toxicity in ICR-SCID mouse heart assessed as cholesterol level at 100 mg/kg administered 3 times per week for 4 weeks measured after 24 hrs of last dose relative to untreated control; assay type: organism-based; parameters: dose 100 mg/kg; settings: in vivo
NCI-N87 = assay: Growth inhibition of human NCI-N87 cells assessed as ATP level after 4 days; assay type: functional; settings: NCI-N87, 96 h
Mus musculus [5] = assay: Hepatotoxicity in ICR-SCID mouse liver assessed as alanine aminotransferase level at 100 mg/kg administered 3 times per week for 4 weeks measured after 24 hrs of last dose relative to untreated control; assay type: toxicity, organism-based; parameters: dose 100 mg/kg; settings: in vivo
BT-474 [6] = assay: Induction of HSP70 degradation in human BT474 cells xenografted in ICR-SCID mouse at 100 mg/kg, ip administered after 3 weeks tumor implantation after 6 to 48 hrs by Western blotting; assay type: functional, organism-based; parameters: dose 100 mg/kg
Mus musculus [7] = assay: Toxicity in ICR-SCID mouse heart assessed as […] level at 100 mg/kg administered 3 times per week for 4 weeks measured after 24 hrs of last dose relative to untreated control; assay type: organism-based; parameters: dose 100 mg/kg; settings: in vivo
Mus musculus [8] = assay: Hepatotoxicity in ICR-SCID mouse liver assessed as alkaline phosphatase level at 150 mg/kg administered 3 times per week for 4 weeks measured after 24 hrs of last dose relative to untreated control; assay type: toxicity, organism-based; parameters: dose 150 mg/kg; settings: in vivo
HCC827 = assay: Induction of mutant Met degradation in human tarceva and iressa-resistant HCC827 cells at 20 to 500 nM by Western blotting; assay type: functional, cell-based
BT-474 [9] = assay: Induction of p-AKT degradation in human BT474 cells xenografted in ICR-SCID mouse at 100 mg/kg, ip administered after 3 weeks tumor implantation after 6 to 48 hrs by Western blotting; assay type: functional, organism-based; parameters: dose 100 mg/kg
BT-474 [10] = assay: Induction of c-Raf degradation in human BT474 cells xenografted in ICR-SCID mouse at 100 mg/kg, ip administered after 3 weeks tumor implantation after 6 to 48 hrs by Western blotting; assay type: functional, organism-based; parameters: dose 100 mg/kg
Homo sapiens = organism: Homo sapiens; assay: Growth inhibition of human tarceva and iressa-resistant […] cells assessed as ATP level after 4 days; assay type: functional
Mus musculus [11] = assay: Hepatotoxicity in ICR-SCID mouse liver assessed as aspartate aminotransferase level at 150 mg/kg administered 3 times per week for 4 weeks measured after 24 hrs of last dose relative to untreated control; assay type: toxicity, organism-based; parameters: dose 150 mg/kg; settings: in vivo
NCI-H1975 [12] = assay: Induction of mutant Met degradation in human tarceva and iressa-resistant NCI-H1975 cells at 20 to 500 nM by Western blotting; assay type: functional, cell-based
[13] = Drug level in tumor of human BT474 cells xenografted in ICR-SCID mouse at 200 mg/kg, ip administered after 3 weeks tumor implantation measured after 6 hrs; assay type: ADME, organism-based, Neoplasm, BT-474; parameters: dose 200 mg/kg, route intraperitoneal; settings: tumor (human BT474 xenograft), read-out: Drug uptake
NCI-H1975 [14] = assay: Induction of mutant Cdk4 degradation in human tarceva and iressa-resistant NCI-H1975 cells at 20 to 500 nM by Western blotting; assay type: functional, cell-based
NCI-H1975 [15] = assay: Induction of mutant c-Raf degradation in human tarceva and iressa-resistant NCI-H1975 cells at 20 to 500 nM by Western blotting; assay type: functional, cell-based
Mus musculus [16] = assay: Toxicity in ICR-SCID mouse heart assessed as […] level at 150 mg/kg administered 3 times per week for 4 weeks measured after 24 hrs of last dose relative to untreated control; assay type: organism-based; parameters: dose 150 mg/kg; settings: in vivo
Mus musculus [17] = assay: Hepatotoxicity in ICR-SCID mouse liver assessed as aspartate aminotransferase level at 100 mg/kg administered 3 times per week for 4 weeks measured after 24 hrs of last dose relative to untreated control; assay type: toxicity, organism-based; parameters: dose 100 mg/kg; settings: in vivo
NCI-H1975 [18] = assay: Induction of mutant EGFR degradation in human tarceva and iressa-resistant NCI-H1975 cells at 20 to 500 nM by Western blotting; assay type: functional, cell-based
BT-474 [19] = assay: Induction of HER2 degradation in human BT474 cells xenografted in ICR-SCID mouse at 100 mg/kg, ip administered after 3 weeks tumor implantation after 6 to 48 hrs by Western blotting; assay type: functional, organism-based; parameters: dose 100 mg/kg
MDA-MB-468 = assay: Growth inhibition of human MDA-MB-468 cells assessed as ATP level after 4 days; assay type: functional; settings: MDA-MB-468, 96 h
[20] = target: Heat shock protein HSP 90-alpha (Homo sapiens) (UniProt P07900)
Description: Binding affinity to human HSP90alpha

NSCLC = assay: Growth inhibition of human NSCLC cells assessed as ATP level after 4 days; assay type: functional, cell-based
[21] = Half life in ICR-SCID mouse; assay type: ADME, organism-based; settings: in vivo
Mus musculus [22] = assay: Hepatotoxicity in ICR-SCID mouse liver assessed as hematopoietic cell differentiation administered 3 times per week for 4 weeks measured after 24 hrs of last dose; assay type: toxicity, organism-based; settings: in vivo
Mus musculus [23] = assay: Toxicity in ICR-SCID mouse kidney assessed as creatinine level at 100 mg/kg administered 3 times per week for 4 weeks measured after 24 hrs of last dose relative to untreated control; assay type: organism-based; parameters: dose 100 mg/kg; settings: in vivo
BT-474 [24] = assay: Induction of p-HER2 degradation in human BT474 cells xenografted in ICR-SCID mouse at 100 mg/kg, ip administered after 3 weeks tumor implantation after 6 to 48 hrs by Western blotting; assay type: functional, organism-based; parameters: dose 100 mg/kg
[25] = Drug level in tumor of human BT474 cells xenografted in ICR-SCID mouse at 100 mg/kg, ip administered after 3 weeks tumor implantation measured after 24 hrs; assay type: ADME, organism-based, Neoplasm, BT-474; parameters: dose 100 mg/kg, route intraperitoneal; settings: tumor (human BT474 xenograft), read-out: Drug uptake
Mus musculus [26] = assay: Hepatotoxicity in ICR-SCID mouse liver assessed as alanine aminotransferase level at 150 mg/kg administered 3 times per week for 4 weeks measured after 24 hrs of last dose relative to untreated control; assay type: toxicity, organism-based; parameters: dose 150 mg/kg; settings: in vivo
[27] = Drug level in tumor of human BT474 cells xenografted in ICR-SCID mouse at 100 mg/kg, ip administered after 3 weeks tumor implantation measured after 48 hrs; assay type: ADME, organism-based, Neoplasm, BT-474; parameters: dose 100 mg/kg, route intraperitoneal; settings: tumor (human BT474 xenograft), read-out: Drug uptake
K562 = assay: Growth inhibition of human K562 cells assessed as ATP level after 4 days; assay type: functional; settings: K562, 96 h
BT-474 [28] = assay: Induction of Cyclin D degradation in human BT474 cells xenografted in ICR-SCID mouse at 100 mg/kg, ip administered after 3 weeks tumor implantation after 6 to 48 hrs by Western blotting; assay type: functional, organism-based; parameters: dose 100 mg/kg
Mus musculus [29] = assay: Toxicity in ICR-SCID mouse kidney assessed as BUN level at 100 mg/kg administered 3 times per week for 4 weeks measured after 24 hrs of last dose relative to untreated control; assay type: organism-based; parameters: dose 100 mg/kg; settings: in vivo
[30] = Bioavailability in […] dosed mouse; assay type: ADME, organism-based; settings: in vivo
[31] = Solubility in water; assay type: physicochemical; settings: buffer
[32] = Growth inhibition of human A172 cells assessed as ATP level after 4 days; assay type: functional; settings: A 172, 96 h
Mus musculus [33] = assay: Toxicity in ICR-SCID mouse kidney assessed as creatinine level at 150 mg/kg administered 3 times per week for 4 weeks measured after 24 hrs of last dose relative to untreated control; assay type: organism-based; parameters: dose 150 mg/kg; settings: in vivo
PC-3 = assay: Growth inhibition of human PC3 cells assessed as ATP level after 4 days; assay type: functional, cell-based

Question: With `O=C1OCC/C=C/CC/C=C/C(=N/OCC(=O)N2CCCCC2)Cc2c(Cl)c(O)cc(O)c21` [POCHOXIME A] as the molecule, how does the concentration at 24 h [1] read?
Answer: 10200 ng/g

Question: And the Activity (Mus musculus [2])?
Answer: 51.3 U/L

Question: And the concentration at 12 h [3]?
Answer: 5250 ng/g

Question: What about the Activity (Mus musculus [4]) of the same molecule?
Answer: 168 mg/dL

Question: What about the GI50 (NCI-N87) of the same molecule?
Answer: 4 nM

Question: What about the Activity (Mus musculus [5]) of the same molecule?
Answer: 19.3 U/L

Question: And the Activity (BT-474 [6])?
Answer: Active

Question: What about the Activity (Mus musculus [7]) of the same molecule?
Answer: 15.2 U/L

Question: What about the Activity (Mus musculus [8]) of the same molecule?
Answer: 67.5 U/L

Question: What about the Activity (HCC827) of the same molecule?
Answer: Active

Question: What about the Activity (BT-474 [9]) of the same molecule?
Answer: Active

Question: What about the Activity (BT-474 [10]) of the same molecule?
Answer: Active

Question: And the Activity (Homo sapiens)?
Answer: Active

Question: And the Activity (Mus musculus [11])?
Answer: 191 U/L

Question: And the Activity (NCI-H1975 [12])?
Answer: Active

Question: And the concentration at 6 h [13]?
Answer: 6520 ng/g

Question: And the Activity (NCI-H1975 [14])?
Answer: Active

Question: What about the Activity (NCI-H1975 [15]) of the same molecule?
Answer: Active

Question: What about the Activity (Mus musculus [16]) of the same molecule?
Answer: 31 U/L

Question: What about the Activity (Mus musculus [17]) of the same molecule?
Answer: 88.7 U/L

Question: What about the Activity (NCI-H1975 [18]) of the same molecule?
Answer: Active

Question: And the Activity (BT-474 [19])?
Answer: Active

Question: And the GI50 (MDA-MB-468)?
Answer: 9 nM

Question: And the GI50 [20]?
Answer: 21 nM

Question: And the Activity (NSCLC)?
Answer: Active

Question: What about the half-life [21] of the same molecule?
Answer: 2.5 h

Question: And the Activity (Mus musculus [22])?
Answer: Not Active

Question: What about the Activity (Mus musculus [23]) of the same molecule?
Answer: 0.2 mg/dL

Question: And the Activity (BT-474 [24])?
Answer: Active

Question: What about the concentration at 24 h [25] of the same molecule?
Answer: 4020 ng/g

Question: And the Activity (Mus musculus [26])?
Answer: 12 U/L

Question: What about the concentration at 48 h [27] of the same molecule?
Answer: 1500 ng/g

Question: And the GI50 (K562)?
Answer: 6 nM

Question: And the Activity (BT-474 [28])?
Answer: Active

Question: And the Activity (Mus musculus [29])?
Answer: 20 mg/dL

Question: And the bioavailability [30]?
Answer: 60.5%

Question: And the solubility [31]?
Answer: Insoluble

Question: And the GI50 [32]?
Answer: 42 nM

Question: And the Activity (Mus musculus [33])?
Answer: 0.2 mg/dL

Question: And the Activity (PC-3)?
Answer: Active
